From US7087375B1, “Method for determining the mechanism of HIV RT inhibitors” (priority 2000, dated 2006)
Values joined by “and” are separate entries in the source; they are usually repeats but may differ in a detail not shown here. Identical values can stand only once. Like-named read-outs stand apart in the source and are kept apart here. Marks after values point to notes of the source that are not given here.

Columns and labels:
[1] = test system: HXB2 site-directed mutant M41L, T69S-SS, T215Y; type: cell-based; details: virus M41L
[2] = test system: HXB2 site-directed mutant T69S-SS; type: cell-based; details: virus T69S-SS
[3] = test system: HXB2 site-directed mutant T69S-SG; type: cell-based; details: virus T69S-SG
[4] = test system: HXB2 site-directed mutant M41L, T69S-SG, T215Y; type: cell-based; details: virus M41L
[5] = test system: HXB2 site-directed mutant M41L, D67N, K70R, M184V, T215Y; type: cell-based; details: virus M41L
[6] = test system: HXB2 site-directed mutant M41L, T69S-AG, T215Y; type: cell-based; details: virus M41L
[7] = test system: HXB2 site-directed mutant T69S-AG; type: cell-based; details: virus T69S-AG
[8] = test system: HXB2 site-directed mutant M41L, T215Y; type: cell-based; details: virus M41L
[9] = test system: HXB2 site-directed mutant D67N, K70R; type: cell-based; details: virus D67N
[10] = test system: HXB2 site-directed mutant M41L, M184V, T215Y; type: cell-based; details: virus M41L
[11] = test system: wild type HXB2 virus; experiment: HIV drug susceptibility assay (recombinant virus, MT-4 cells)
Experimental: Phenotypic susceptibility of these viable recombinant viruses to nucleoside analogs was then determined. […] Fold resistance values were calculated by dividing the mean 50% inhibitory concentration (IC50) for a recombinant virus from a mutant clone by the mean IC50 for recombinant wild type virus (HXB2).

[12] = target: T1, HIV-1 RT wild type (HXB2) (Human immunodeficiency virus type 1 group M subtype B, UniProt P04585); type: biochemical; details: for Fold resistance in RT-assay relative to HXB2: wild type HXB2 RT (reference); for Ki / Ki/Km: wild type HXB2 RT
T1 construct: The final RT products, in a heterodimeric form (p66/p51); made in house; host or cells: E. coli XL1-Blue (vector pKK233-2)

[13] = target: T2, HIV-1 RT mutant 69S-AG (Human immunodeficiency virus type 1 group M subtype B, UniProt P04585, INS655SA/T656G/T656S); type: biochemical; details: 69S-AG RT
T2 construct: The final RT products, in a heterodimeric form (p66/p51); made in house; host or cells: E. coli XL1-Blue (vector pKK233-2)

[14] = target: T3, HIV-1 RT mutant 41/67/70/215 (Human immunodeficiency virus type 1 group M subtype B, UniProt P04585, D654N/K657R/M628L/T802Y); type: biochemical; details: 41/67/70/215 RT
T3 construct: The final RT products, in a heterodimeric form (p66/p51); made in house; host or cells: E. coli XL1-Blue (vector pKK233-2)

[15] = target: T4, HIV-1 RT mutant 41/184/215 (Human immunodeficiency virus type 1 group M subtype B, UniProt P04585, M628L/M771V/T802Y); type: biochemical; details: 41/184/215 RT
T4 construct: The final RT products, in a heterodimeric form (p66/p51); made in house; host or cells: E. coli XL1-Blue (vector pKK233-2)

[16] = target: T5, HIV-1 RT mutant 41/69S-SS/215 (Human immunodeficiency virus type 1 group M subtype B, UniProt P04585, INS655SS/M628L/T656S/T802Y); type: biochemical; details: 41/69S-SS/215 RT
T5 construct: The final RT products, in a heterodimeric form (p66/p51); made in house; host or cells: E. coli XL1-Blue (vector pKK233-2)

[17] = target: HIV-1 RT mutant 41/215 (Human immunodeficiency virus type 1 group M subtype B, UniProt P04585, M628L/T802Y); experiment: RT inhibition assay (Lenti RT, polyrA/oligo(dT), BrdUTP); type: biochemical; details: 41/215 RT
[18] = target: T6, HIV-1 RT mutant 69S-SG (Human immunodeficiency virus type 1 group M subtype B, UniProt P04585, INS655SS/T656G/T656S); type: biochemical; details: 69S-SG RT
T6 construct: The final RT products, in a heterodimeric form (p66/p51); made in house; host or cells: E. coli XL1-Blue (vector pKK233-2)

[19] = target: T7, HIV-1 RT mutant 41/67/70/184/210/211/214/215 (Human immunodeficiency virus type 1 group M subtype B, UniProt P04585, D654N/K657R/L797W/L801F/M628L/M771V/R798K/T802Y); type: biochemical; details: 41/67/70/184/210/211/214/215 RT
T7 construct: The final RT products, in a heterodimeric form (p66/p51); made in house; host or cells: E. coli XL1-Blue (vector pKK233-2)

[20] = target: T8, HIV-1 RT mutant 69S-SS (Human immunodeficiency virus type 1 group M subtype B, UniProt P04585, INS655SS/T656S); type: biochemical; details: 69S-SS RT
T8 construct: The final RT products, in a heterodimeric form (p66/p51); made in house; host or cells: E. coli XL1-Blue (vector pKK233-2)

[21] = target: T9, HIV-1 RT mutant 41/67/70/184/215 (Human immunodeficiency virus type 1 group M subtype B, UniProt P04585, D654N/K657R/M628L/M771V/T802Y); type: biochemical; details: 41/67/70/184/215 RT
T9 construct: The final RT products, in a heterodimeric form (p66/p51); made in house; host or cells: E. coli XL1-Blue (vector pKK233-2)

[22] = no extra additions (without ATP)
[23] = nontreated pyrophosphatase ATP 3.2 mM (control), single experiment
[24] = pyrophosphatase treated ATP 3.2 mM, single experiment

Molecule: Cc1cn([C@H]2C=C[C@@H](CO)O2)c(=O)[nH]c1=O [d4T, stavudine]
- Fold resistance in IC50 relative to HXB2 [1]: 7.1 fold
- Fold resistance in IC50 relative to HXB2 [2]: 4.4 fold
- Fold resistance in IC50 relative to HXB2 [3]: 4.4 fold and 4.4 +/− 1.1 fold
- Fold resistance in IC50 relative to HXB2 [4]: 4.0 fold
- Fold resistance in IC50 relative to HXB2 [5]: 3.7 fold and 3.7 +/− 1.0 fold
- Fold resistance in IC50 relative to HXB2 [6]: 3.1 fold
- Fold resistance in IC50 relative to HXB2 [7]: 6.9 fold and 6.9 +/− 2.7 fold
- Fold resistance in IC50 relative to HXB2 [8]: 2.6 fold
- Fold resistance in IC50 relative to HXB2 [9]: 5.1 fold
- Fold resistance in IC50 relative to HXB2 [10]: 2.2 fold
- IC50 ([11]; Human immunodeficiency virus 1, HXB2, MT4, read-out: mean IC50 for the wild type control virus): 1200 nM
- Virus Assay fold resistance ([11]; wild type HXB2 virus (reference)): 1.0 fold

Molecule: AZT-TP
- Fold resistance in RT-assay relative to HXB2 ([12]; ATP 3.2 mM): 1.0 fold
- Fold resistance in RT-assay relative to HXB2 ([12]; without ATP): 1.0 fold
- Ki ([12]; ATP 3.2 mM): 10 nM
- Ki/Km ([12]; ATP 3.2 mM): 0.032
- Ki ([12]; ATP 3.2 mM + PPi 150 μM): 59 nM
- Ki/Km ([12]; ATP 3.2 mM + PPi 150 μM): 0.11
- Ki ([12]; ATP 6.0 mM): 40 nM
- Ki/Km ([12]; ATP 6.0 mM): 0.049
- Ki ([12]; ATP […]): 4.8 nM
- Ki/Km ([12]; ATP […]): 0.02
- Ki ([12]; GTP 0.5 mM): 9 nM
- Ki/Km ([12]; GTP 0.5 mM): 0.028
- Ki ([12]; PPi 150 μM): 26 nM
- Ki/Km ([12]; PPi 150 μM): 0.087
- Ki [12, 22]: 5.8 nM
- Ki/Km [12, 22]: 0.034
- Fold resistance in RT-assay relative to HXB2 ([13]; ATP 3.2 mM): 14.0 fold
- Ki ([13]; ATP 3.2 mM): 125 nM
- Ki/Km ([13]; ATP 3.2 mM): 0.45
- level of resistance in RT assay relative to wild type ([13]; GTP 0.5 mM): 1.2–1.3 fold
- level of resistance in RT assay relative to wild type ([13]; PPi 150 μM): 3.3
- Fold resistance in RT-assay relative to HXB2 ([13]; without ATP): 1.9 fold
- Ki ([13]; without ATP): 6.4 nM
- Ki/Km ([13]; without ATP): 0.064
- Fold resistance in RT-assay relative to HXB2 ([14]; ATP 3.2 mM): 16.6 fold and 16.6 (+/−0.3) fold
- Ki ([14]; ATP 3.2 mM): 39 nM
- Ki/Km ([14]; ATP 3.2 mM): 0.53
- Fold resistance in RT-assay relative to HXB2 ([14]; ATP 3.2 mM + PPi 150 μM): 12.6 fold and 12.6 (+/−3) fold
- Ki ([14]; ATP 3.2 mM + PPi 150 μM): 280 nM
- Ki/Km ([14]; ATP 3.2 mM + PPi 150 μM): 1.39
- Fold resistance in RT-assay relative to HXB2 ([14]; ATP 6.0 mM): 15.9 (+/−4) fold
- Ki ([14]; ATP 6.0 mM): 176 nM
- Ki/Km ([14]; ATP 6.0 mM): 0.78
- Ki ([14]; ATP […]): 6.4 nM
- Ki/Km ([14]; ATP […]): 0.1
- Fold resistance in RT-assay relative to HXB2 ([14]; GTP 0.5 mM): 1.2 (+/−0.03) fold
- Ki ([14]; GTP 0.5 mM): 4 nM
- Ki/Km ([14]; GTP 0.5 mM): 0.034
- Fold resistance in RT-assay relative to HXB2 ([14]; PPi 150 μM): 10.5 fold and 10.5 (+/−3) fold
- Ki ([14]; PPi 150 μM): 83 nM
- Ki/Km ([14]; PPi 150 μM): 0.92
- Fold resistance in RT-assay relative to HXB2 [14, 22]: 0.9 fold and 0.9 (+/−0.1) fold
- Ki/Km [14, 22]: 0.03
- Ki [14, 23]: 20 nM
- Ki/Km [14, 23]: 0.46*
- Ki [14, 24]: 16 nM
- Ki/Km [14, 24]: 0.42*
- Fold resistance in RT-assay relative to HXB2 ([15]; ATP 3.2 mM): 5.9 fold
- Ki/Km ([15]; ATP 3.2 mM): 0.19
- Fold resistance in RT-assay relative to HXB2 ([15]; without ATP): 1.3 fold
- Ki ([15]; without ATP): 2.2 nM
- Ki/Km ([15]; without ATP): 0.045
- Fold resistance in RT-assay relative to HXB2 ([16]; ATP 3.2 mM): 20 fold and 19.7 fold
- Ki ([16]; ATP 3.2 mM): 133 nM
- Ki/Km ([16]; ATP 3.2 mM): 0.63
- Fold resistance in RT-assay relative to HXB2 ([16]; without ATP): 0.9 fold
- Ki ([16]; without ATP): 1.4 nM
- Ki/Km ([16]; without ATP): 0.031
- Fold resistance in RT-assay relative to HXB2 ([17]; ATP 3.2 mM): 3 fold and 2.9 fold
- Ki ([17]; ATP 3.2 mM): 34 nM
- Ki/Km ([17]; ATP 3.2 mM): 0.094
- level of resistance in RT assay relative to wild type ([17]; GTP 0.5 mM): 1.2–1.3 fold
- level of resistance in RT assay relative to wild type ([17]; PPi 150 μM): 1.1 fold
- Fold resistance in RT-assay relative to HXB2 ([17]; without ATP): 0.8 fold
- Ki ([17]; without ATP): 3 nM
- Ki/Km ([17]; without ATP): 0.027
- Fold resistance in RT-assay relative to HXB2 ([18]; ATP 3.2 mM): 8.4 fold
- Ki ([18]; ATP 3.2 mM): 96 nM
- Ki/Km ([18]; ATP 3.2 mM): 0.27
- Fold resistance in RT-assay relative to HXB2 ([18]; without ATP): 1.1 fold
- Ki ([18]; without ATP): 3.8 nM
- Ki/Km ([18]; without ATP): 0.038
- Fold resistance in RT-assay relative to HXB2 ([19]; ATP 3.2 mM): 2.8 fold
- Ki ([19]; ATP 3.2 mM): 52 nM
- Ki/Km ([19]; ATP 3.2 mM): 0.09
- Fold resistance in RT-assay relative to HXB2 ([19]; without ATP): 0.3 fold
- Ki ([19]; without ATP): 1.3 nM
- Ki/Km ([19]; without ATP): 0.011
- Fold resistance in RT-assay relative to HXB2 ([20]; ATP 3.2 mM): 3.0 fold
- Ki ([20]; ATP 3.2 mM): 21 nM
- Ki/Km ([20]; ATP 3.2 mM): 0.095
- Fold resistance in RT-assay relative to HXB2 ([20]; without ATP): 0.8 fold
- Ki ([20]; without ATP): 1.7 nM
- Ki/Km ([20]; without ATP): 0.026
- Fold resistance in RT-assay relative to HXB2 ([21]; ATP 3.2 mM): 4.1 fold
- Ki ([21]; ATP 3.2 mM): 50 nM
- Ki/Km ([21]; ATP 3.2 mM): 0.13
- Fold resistance in RT-assay relative to HXB2 ([21]; without ATP): 0.3 fold
- Ki ([21]; without ATP): 0.6 nM
- Ki/Km ([21]; without ATP): 0.01
